Consider 22 molecules from patent publication US10508085B2, “Compounds and methods for IDO and TDO modulation, and indications therefor” (Plexxikon Inc., priority 2016, dated 2019).

For test [1], the target named is T1, Human Tryptophan 2,3-dioxygenase (TDO) (Homo sapiens, UniProt P48775).
T1 construct: His tag (N); made in house; host or cells: E. coli
The test can be described thus: Human TDO enzymatic assay (kynurenine level). It counts as biochemical. The note with it: 1 nM TDO, 350 μM L-Trp; geometric mean; read-out: TDO GMean: IC50 (μM) (Biochemical Assay). As for the experimental part: (§1) Human Indoleamine 2,3-dioxygenase (IDO) and Tryptophan 2,3-dioxygenase (TDO) enzymatic assay
(§2) Human IDO or TDO with N-terminal His tag is purified in E. coli. The IDO enzymatic assay is performed using 6 nM IDO and 10 μM L-Trp in the presence of 10 mM ascorbic acid, 5 μM methylene blue, 100 nM catalase and 0.01% Tween 20 in 50 mM sodium phosphate buffer (pH 6.5). 19 μL of above reaction mixture is added to wells of 384 well reaction plate containing […] of various concentrations of test compound or DMSO vehicle and incubated for 20 minutes at room temperature. The TDO enzymatic reaction assay is performed using 1 nM TDO and 350 μM L-Trp in the presence of 10 mM ascorbic acid, 0.4 μM methylene blue, 100 nM catalase and 0.01% Tween 20 in 50 mM sodium phosphate buffer (pH 6.5). 19 μL of above reaction mixture is added to wells of 384 well reaction plate containing 1 μL of various concentrations of test compound or DMSO vehicle and incubated for 70 minutes at room temperature. 16 wells containing all the components of reaction mixture and 5% DMSO serve as high control. 16 well containing all the components except enzyme of reaction mixture and 5% DMSO serves as low control. Both IDO and TDO enzymatic reactions are stopped by addition of […] of 30% TCA and incubated 30 minutes at 50° C. to hydrolyze N-formylkynurenine produced by IDO or TDO to kynurenine. Upon measuring the kynurenine level, the percentage inhibition is calculated at individual concentrations relative to high and low controls. The data is analyzed by using nonlinear regression to generate IC50 values.

Test [2] addresses T2, Human Indoleamine 2,3-dioxygenase (IDO) (Homo sapiens, UniProt P14902).
T2 construct: His tag (N); made in house; host or cells: E. coli
In words: Human IDO enzymatic assay (kynurenine level). Type of test: biochemical. The note with it: 6 nM IDO, 10 μM L-Trp; geometric mean; read-out: IDO1 GMean: IC50 (μM) (Biochemical Assay). As for the experimental part:
as §1, §2

The structures appear in SMILES notation.

T2 sequence (P14902 whole entry): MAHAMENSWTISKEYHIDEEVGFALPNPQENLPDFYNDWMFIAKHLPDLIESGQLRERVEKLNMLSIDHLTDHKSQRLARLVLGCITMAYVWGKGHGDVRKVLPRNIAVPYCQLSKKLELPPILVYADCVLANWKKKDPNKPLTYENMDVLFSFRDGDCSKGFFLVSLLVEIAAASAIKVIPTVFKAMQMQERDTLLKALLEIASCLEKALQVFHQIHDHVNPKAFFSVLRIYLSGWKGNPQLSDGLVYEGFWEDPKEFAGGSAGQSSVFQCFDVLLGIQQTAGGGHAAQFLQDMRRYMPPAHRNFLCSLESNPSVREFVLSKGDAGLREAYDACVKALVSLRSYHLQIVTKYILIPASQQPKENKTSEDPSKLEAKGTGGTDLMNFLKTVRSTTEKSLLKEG
T1 sequence (P48775 whole entry): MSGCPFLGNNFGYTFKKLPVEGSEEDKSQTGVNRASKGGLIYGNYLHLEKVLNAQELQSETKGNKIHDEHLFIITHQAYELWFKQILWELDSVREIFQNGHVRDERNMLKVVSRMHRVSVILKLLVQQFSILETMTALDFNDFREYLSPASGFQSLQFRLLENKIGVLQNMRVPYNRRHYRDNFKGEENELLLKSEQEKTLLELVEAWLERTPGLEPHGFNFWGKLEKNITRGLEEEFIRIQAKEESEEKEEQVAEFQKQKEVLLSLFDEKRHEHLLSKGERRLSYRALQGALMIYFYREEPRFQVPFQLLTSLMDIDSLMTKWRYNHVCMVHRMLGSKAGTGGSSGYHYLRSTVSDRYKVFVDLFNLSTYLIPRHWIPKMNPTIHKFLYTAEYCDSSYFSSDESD

As usually defined, the IC50 is the concentration needed to halve the response being measured. Take `CC(C)(C1CCN(C(=O)CN2CCOCC2)CC1)C(O)c1cc(Cl)cc2[nH]ncc12` (centres unmarked) [Compound P-0609, 1-(4-(1-(6-chloro-1H-indazol-4-yl)-1-hydroxy-2-methylpropan-2-yl)piperidin-1-yl)-2-morpholinoethan-1-one]: the 50% inhibitory concentration (IC50) in test [1] and in test [2] was 0.0001 to 10 µM throughout.
Take `CC(C)(C1CCN(C(=O)CC2CCS(=O)(=O)CC2)CC1)C(O)c1cc(Cl)cc2[nH]ncc12` (centres unmarked) [Compound P-0610, 1-(4-(1-(6-chloro-1H-indazol-4-yl)-1-hydroxy-2-methylpropan-2-yl)piperidin-1-yl)-2-(1,1-dioxidotetrahydro-2H-thiopyran-4-yl)ethan-1-one]: the half-inhibitory concentration (IC50) in test [1] and in test [2] was 0.0001 to 10 µM in each case.
Regarding `O=C(C1CC1)N1CCC(C(F)(F)[C@H](O)c2c3c(cc4cn[nH]c24)CC3)CC1` [Compound P-0611, (R)-cyclopropyl(4-(2-(5,6-dihydro-1H-cyclobuta[f]indazol-7-yl)-1,1-difluoro-2-hydroxyethyl)piperidin-1-yl)methanone], the IC50 in test [1] and in test [2] was 0.0001 to 10 µM each time.
Turning to `CCC(=O)N1CCC(C(F)(F)[C@H](O)c2c3c(cc4cn[nH]c24)CC3)CC1` [Compound P-0612, (R)-1-(4-(2-(5,6-dihydro-1H-cyclobuta[f]indazol-7-yl)-1,1-difluoro-2-hydroxyethyl)piperidin-1-yl) propan-1-one], the IC50 in test [1] and in test [2] was 0.0001 to 10 µM each time.
As for `N#CCC(=O)N1CCC(C(F)(F)[C@H](O)c2c3c(cc4cn[nH]c24)CC3)CC1` [Compound P-0613, (R)-3-(4-(2-(5,6-dihydro-1H-cyclobuta[f]indazol-7-yl)-1,1-difluoro-2-hydroxyethyl)piperidin-1-yl)-3-oxopropanenitrile], the IC50 in test [1] and in test [2] was 0.0001 to 10 µM in each case.
On to `COCC(=O)N1CCC(C(F)(F)[C@H](O)c2c3c(cc4cn[nH]c24)CC3)CC1` [Compound P-0614, (R)-1-(4-(2-(5,6-dihydro-1H-cyclobuta[f]indazol-7-yl)-1,1-difluoro-2-hydroxyethyl)piperidin-1-yl)-2-methoxyethan-1-one], for which the IC50 in test [1] and in test [2] was 0.0001 to 10 µM in each case.
With `O=C(CO)N1CCC(C(F)(F)[C@H](O)c2c3c(cc4cn[nH]c24)CC3)CC1` [Compound P-0615, (R)-1-(4-(2-(5,6-dihydro-1H-cyclobuta[f]indazol-7-yl)-1,1-difluoro-2-hydroxyethyl)piperidin-1-yl)-2-hydroxyethan-1-one], the 50% inhibitory concentration (IC50) in test [1] and in test [2] was 0.0001 to 10 µM each time.
On to `CC1(C)C(C(=O)N2CCC(C(F)(F)[C@H](O)c3c4c(cc5cn[nH]c35)CC4)CC2)C1(C)C` [Compound P-0616, (R)-(4-(2-(5,6-dihydro-1H-cyclobuta[f]indazol-7-yl)-1,1-difluoro-2-hydroxyethyl)piperidin-1-yl)(2,2,3,3-tetramethylcyclopropyl) methanone], for which the IC50 in test [1] fell in the range of 10 to 100 µM; in test [2] it was 0.0001 to 10 µM.
On the same counts, the results for `O=C(CC1CCOCC1)N1CCC(C(F)(F)[C@H](O)c2c3c(cc4cn[nH]c24)CC3)CC1` [Compound P-0617, (R)-1-(4-(2-(5,6-dihydro-1H-cyclobuta[f]indazol-7-yl)-1,1-difluoro-2-hydroxyethyl)piperidin-1-yl)-2-(tetrahydro-2H-pyran-4-yl)ethan-1-one] are 0.0001 to 10 µM and 0.0001 to 10 µM.
On the same counts, the results for `O=C(C1CCOCC1)N1CCC(C(F)(F)[C@H](O)c2c3c(cc4cn[nH]c24)CC3)CC1` [Compound P-0618, (R)-(4-(2-(5,6-dihydro-1H-cyclobuta[f]indazol-7-yl)-1,1-difluoro-2-hydroxyethyl)piperidin-1-yl)(tetrahydro-2H-pyran-4-yl)methanone] are 0.0001 to 10 µM and 0.0001 to 10 µM.
For `O=C(c1cccnc1)N1CCC(C(F)(F)[C@H](O)c2c3c(cc4cn[nH]c24)CC3)CC1` [Compound P-0619, (R)-(4-(2-(5,6-dihydro-1H-cyclobuta[f]indazol-7-yl)-1,1-difluoro-2-hydroxyethyl)piperidin-1-yl) (pyridin-3-yl)methanone], in that order: 0.0001 to 10 µM and 0.0001 to 10 µM.
As to `O=C(c1ccc(C(F)(F)F)nc1)N1CCC(C(F)(F)[C@H](O)c2c3c(cc4cn[nH]c24)CC3)CC1` [Compound P-0620, (R)-(4-(2-(5,6-dihydro-1H-cyclobuta[f]indazol-7-yl)-1,1-difluoro-2-hydroxyethyl)piperidin-1-yl)(6-(trifluoromethyl)pyridin-3-yl)methanone], the half-maximal inhibitory concentration (IC50) in test [1] and in test [2] was 0.0001 to 10 µM throughout.
Regarding `O=C(c1ccc(Cl)cn1)N1CCC(C(F)(F)[C@H](O)c2c3c(cc4cn[nH]c24)CC3)CC1` [Compound P-0621, (R)-(5-chloropyridin-2-yl)(4-(2-(5,6-dihydro-1H-cyclobuta[f]indazol-7-yl)-1,1-difluoro-hydroxyethyl)piperidin-1-yl) methanone], the half-maximal inhibitory concentration (IC50) in test [1] and in test [2] was 0.0001 to 10 µM each time.
In the case of `O=C(CN1CCOCC1)N1CCC(C(F)(F)[C@H](O)c2c3c(cc4cn[nH]c24)CC3)CC1` [Compound P-0622, (R)-1-(4-(2-(5,6-dihydro-1H-cyclobuta[f]indazol-7-yl)-1,1-difluoro-2-hydroxyethyl)piperidin-1-yl)-2-morpholinoethan-1-one], the concentration for half-maximal inhibition (IC50) in test [1] and in test [2] was 0.0001 to 10 µM throughout.
With `O=C(CN1CCS(=O)(=O)CC1)N1CCC(C(F)(F)[C@H](O)c2c3c(cc4cn[nH]c24)CC3)CC1` [Compound P-0623, (R)-1-(4-(2-(5,6-dihydro-1H-cyclobuta[f]indazol-7-yl)-1,1-difluoro-2-hydroxyethyl)piperidin-1-yl)-2-(1,1-dioxidothiomorpholino) ethan-1-one], the concentration for half-maximal inhibition (IC50) in test [1] and in test [2] was 0.0001 to 10 µM throughout.
Turning to `O=C(CC1CCS(=O)(=O)CC1)N1CCC(C(F)(F)[C@H](O)c2c3c(cc4cn[nH]c24)CC3)CC1` [Compound P-0624, (R)-1-(4-(2-(5,6-dihydro-1H-cyclobuta[f]indazol-7-yl)-1,1-difluoro-2-hydroxyethyl)piperidin-1-yl)-2-(1,1-dioxidotetrahydro-2H-thiopyran-4-yl)ethan-1-one], the IC50 in test [1] and in test [2] was 0.0001 to 10 µM each time.
`O=C(Cc1ccc(F)c(Cl)c1)N1CCC(C(F)(F)[C@H](O)c2c3c(cc4cn[nH]c24)CC3)CC1` [Compound P-0625, (R)-2-(3-chloro-4-fluorophenyl)-1-(4-(2-(5,6-dihydro-1H-cyclobuta[f]indazol 7-yl)-1,1-difluoro-2-hydroxyethyl)piperidin-1-yl) ethan-1-one]: the IC50 in test [1] and in test [2] was 0.0001 to 10 µM throughout.
In the case of `O=C(Cc1ccc(Cl)c(F)c1)N1CCC(C(F)(F)[C@H](O)c2c3c(cc4cn[nH]c24)CC3)CC1` [Compound P-0626, (R)-2-(4-chloro-3-fluorophenyl)-1-(4-(2-(5,6-dihydro-1H-cyclobuta[f]indazol-7-yl)-1,1-difluoro-2-hydroxyethyl)piperidin-1-yl) ethan-1-one], the IC50 in test [1] and in test [2] was 0.0001 to 10 µM throughout.
For the molecule `CCNC(=O)N1CCC(C(F)(F)[C@H](O)c2c3c(cc4cn[nH]c24)CC3)CC1` [Compound P-0627, (R)-4-(2-(5,6-dihydro-1H-cyclobuta[f]indazol-7-yl)-1,1-difluoro-2-hydroxyethyl)-N-ethylpiperidine-1-carboxamide], the IC50 in test [1] and in test [2] was 0.0001 to 10 µM each time.
Turning to `O=C(NC1CC1)N1CCC(C(F)(F)[C@H](O)c2c3c(cc4cn[nH]c24)CC3)CC1` [Compound P-0628, (R)-N-cyclopropyl-4-(2-(5,6-dihydro-1H-cyclobuta[f]indazol-7-yl)-1,1-difluoro-2-hydroxyethyl) piperidine-1-carboxamide], the concentration for half-maximal inhibition (IC50) in test [1] and in test [2] was 0.0001 to 10 µM throughout.
Consider `O=C(NC1CCC1)N1CCC(C(F)(F)[C@H](O)c2c3c(cc4cn[nH]c24)CC3)CC1` [Compound P-0629, (R)-N-cyclobutyl-4-(2-(5,6-dihydro-1H-cyclobuta[f]indazol-7-yl)-1,1-difluoro-2-hydroxyethyl) piperidine-1-carboxamide], for which the half-maximal inhibitory concentration (IC50) in test [1] and in test [2] was 0.0001 to 10 µM throughout.
With `COCCNC(=O)N1CCC(C(F)(F)[C@H](O)c2c3c(cc4cn[nH]c24)CC3)CC1` [Compound P-0630, (R)-4-(2-(5,6-dihydro-1H-cyclobuta[f]indazol-7-yl)-1,1-difluoro-2-hydroxyethyl)-N-(2-methoxyethyl) piperidine-1-carboxamide], the IC50 in test [1] and in test [2] was 0.0001 to 10 µM each time.
